{"source": "paper PMC5587747", "about": "“A natural chalcone induces apoptosis in lung cancer cells: 3D-QSAR, docking and an in vivo/vitro assay” (Scientific Reports, 2017)", "key": {"[1]": {"test_system": "SW1573", "experiment": "MTT cytotoxicity assay, SW1573 cells", "format": "cell-based, human", "settings": "Homo sapiens, lonchocarpin 100 μM, read-out: inhibition rate (IR %)", "procedure": "(§1) The cytotoxicities of the tested flavonoids were assayed in ten human lung cancer cell lines (A549, H226, H358, H522, H292, H1944, H460, H1792, SW1573, and Calu-1) using MTT reduction assay. Cisplatin (DDP) was selected as a positive control. Compounds 1–37 were dissolved in DMSO to obtain a clear solution of 1 M, which was diluted to 400 mM, 200 mM, 100 mM, 75 mM, 50 mM, 37.5 mM, 25 mM, 10 mM and 1 mM respectively as stock solutions. The DMSO concentration in the medium was kept below 0.10%. Moreover, the stability of tested compounds in experimental buffer was confirmed at 24 h and 48 h respectively by means of HPLC analysis. Then the human lung cancer cells were placed in 96-well culture plates (5 × 10^4 cells/well) and incubated for 24 h. Then, the cells were pretreated with different concentrations of test samples (gradient concentrations 1.0, 10.0, 25.0, 37.5, 50, 75, 100, 200, 400, 1000 μM for compounds 1–37 and DDP) for 48 h. And cell growth was measured by MTT assays. The cytotoxicities against the lung cancer cells were determined systematically and expressed as IC50 value."}, "[2]": {"test_system": "CEM leukaemic cell line", "set-up": "method as in PMID 12601679", "settings": "cited from earlier work"}, "[3]": {"test_system": "Calu-1", "experiment": "MTT cytotoxicity assay, Calu-1 cells", "format": "cell-based, human", "settings": "Homo sapiens, lonchocarpin 100 μM, read-out: inhibition rate (IR %)", "procedure": "as §1"}, "[4]": {"test_system": "H292 cells", "experiment": "Annexin V/PI apoptosis assay by flow cytometry", "format": "cell-based, human", "settings": "H292, 20 μM", "procedure": "Cell apoptosis was evaluated by Annexin V/PI staining assay and analyzed using an apoptosis detection kit (Keygen, Nanjing, China)[37]. Briefly, H292 cells were cultured at the density of 1 × 10^6 cells/well. […] Both attached and floating cells were harvested at the arranged time point, and washed twice with ice-cold PBS, then resuspended in 100 μL binding buffer with Annexin V and PI for 15 min at 37 °C in darkness. Finally, the treated cells were analyzed by flow cytometry (Becton Dickinson, Franklin Lakes, NJ, USA) and Cell Quest software. The apoptosis rate was given by the following formula:\nApoptosis rate % = (number of apoptotic cells)/(number of total cells observed) × 100%."}, "[5]": {"test_system": "H358", "experiment": "MTT cytotoxicity assay, H358 cells", "format": "cell-based, human", "settings": "Homo sapiens, NCI-H358, lonchocarpin 100 μM, read-out: inhibition rate (IR %)", "procedure": "as §1"}, "[6]": {"test_system": "H292 cells", "experiment": "MTT cytotoxicity assay, H292 cells", "format": "cell-based, human", "settings": "Homo sapiens, NCI-H292; for IC50: H292 cells", "procedure": "as §1"}, "[7]": {"test_system": "H460", "experiment": "MTT cytotoxicity assay, H460 cells", "format": "cell-based, human", "settings": "Homo sapiens, NCI-H460, lonchocarpin 100 μM, read-out: inhibition rate (IR %)", "procedure": "as §1"}, "[8]": {"test_system": "Vero cells", "experiment": "Cytotoxicity in Vero cells", "format": "cell-based", "settings": "at 1000 μM"}, "[9]": {"test_system": "Bcl-2, Bax, procaspase-3, cleaved caspase-3, cytochrome c, caspase-9 in H292 cells", "experiment": "Western blotting of apoptosis-related proteins", "format": "cell-based, human", "settings": "H292, 20 μM", "procedure": "Western blotting was performed according to the method described in previous research. […] Then, the cells were harvested and then washed with PBS and lysed in a radio immune-precipitation assay buffer for 30 min. BCA protein assay kit (Byontime, Beijing, China) was used for determination of the total protein contents. And the protein samples were dissolved and seperated on 10% SDS-PAGE gels. After that the proteins were transferred to PVDF (polyvinylidene fluoride) (Bio-Rad, Hercules, CA) membranes and incubated sequentially with blocking buffer, primary antibodies, and horseradish peroxidase-conjugated secondary antibodies."}, "[10]": {"test_system": "S180-bearing mice", "experiment": "In vivo antitumor activity in S180 implanted mice", "settings": "12 days; for Tumor weight/g: mean ± SE", "procedure": "The animal experiments were carried out according to the National Institute of Health Guide for the Care and Use of Laboratory Animals. And the use of experimental animals was approved by the Animal Ethics Committee of Shenyang Pharmaceutical University. Male Kunming mice, were housed in separate cages under standard conditions (20–24 °C), relative humidity (55% ± 5%) and a 12 h light/12 h dark cycle, and allowed to acclimatize for 3 days prior to the start of experiment. Cultured S180 cells were harvested and washed with sterilized PBS (pH 7.2) three times and resuspended at a density of 6 × 10^6 cells/ml. Mice received subcutaneous implants of 0.2 mL/mouse on the right flank by means of hypodermic injection. Then the mice were divided randomly into 5 groups, including model, positive control and treatment groups with 10 mice in each group after inoculation for 24 h. […] Both groups received oral administrations via an intubation needle every day. […] The weight of the mice was recorded every day throughout the experiment. Finally, the mice were sacrificed by cervical dislocation just 2 h after the last administration. Then the tumor and spleen tissues were harvested and weighed immediately. After that the in vivo tumor inhibition ratio was calculated as: Inhibition ratio (%) = 100((A−B)/A), in which A represents the average tumor weight of the control group and B is recorded as the tumor weight of the administration group. Then, the spleen index was recorded using the following formula:\nSpleen index = the final weight of spleen (mg)/the final average body weight (g) without tumor."}, "[11]": {"test_system": "H226", "experiment": "MTT cytotoxicity assay, H226 cells", "format": "cell-based, human", "settings": "Homo sapiens, NCI-H226, lonchocarpin 100 μM, read-out: inhibition rate (IR %)", "procedure": "as §1"}, "[12]": {"test_system": "H1792", "experiment": "MTT cytotoxicity assay, H1792 cells", "format": "cell-based, human", "settings": "Homo sapiens, NCI-H1792, lonchocarpin 100 μM, read-out: inhibition rate (IR %)", "procedure": "as §1"}, "[13]": {"test_system": "A549", "experiment": "MTT cytotoxicity assay, A549 cells", "format": "cell-based, human", "settings": "Homo sapiens, lonchocarpin 100 μM, read-out: inhibition rate (IR %)", "procedure": "as §1"}, "[14]": {"test_system": "H1944", "experiment": "MTT cytotoxicity assay, H1944 cells", "format": "cell-based, human", "settings": "Homo sapiens, NCI-H1944, lonchocarpin 100 μM, read-out: inhibition rate (IR %)", "procedure": "as §1"}, "[15]": {"test_system": "H522", "experiment": "MTT cytotoxicity assay, H522 cells", "format": "cell-based, human", "settings": "Homo sapiens, NCI-H522, lonchocarpin 100 μM, read-out: inhibition rate (IR %)", "procedure": "as §1"}}, "note": "Like-named read-outs stand apart in the source and are kept apart here.", "data": [{"compound": "CC1(C)C=Cc2c(ccc(C(=O)/C=C/c3ccccc3)c2O)O1", "note": "[Compound 34, lonchocarpin]", "values": [{"measurement": "inhibition at 100 µM", "setting": "[1]", "result": 92.3, "unit": "%"}, {"measurement": "IC50", "setting": "[2]", "result": 10.4, "unit": "µg/mL"}, {"measurement": "inhibition at 100 µM", "setting": "[3]", "result": 23.8, "unit": "%"}, {"measurement": "early apoptosis (lower right quadrant)", "setting": "[4]; 12 h", "result": 7.2, "unit": "%"}, {"measurement": "late apoptosis (upper right quadrant)", "setting": "[4]; 12 h", "result": 3.9, "unit": "%"}, {"measurement": "apoptosis", "setting": "[4]; 24 h", "result": "about 41.1%"}, {"measurement": "apoptosis", "setting": "[4]; 48 h", "result": "~47.9", "unit": "%"}, {"measurement": "inhibition at 100 µM", "setting": "[5]", "result": 51.3, "unit": "%"}, {"measurement": "inhibition at 100 µM", "setting": "[6]; H292, lonchocarpin 100 μM, read-out: inhibition rate (IR %)", "result": 97.5, "unit": "%"}, {"measurement": "IC50", "setting": "[6]; MTT, 48 h, read-out: IC50", "result": 10, "unit": "µM"}, {"measurement": "IC50", "setting": "[6]; Table S2, read-out: pIC50 (converted)", "result": 10, "unit": "µM"}, {"measurement": "inhibition at 100 µM", "setting": "[7]", "result": 76.3, "unit": "%"}, {"measurement": "cytotoxicity in Vero cells", "setting": "[8]; listed as Lonchocarpin", "result": "no cytotoxicity"}, {"measurement": "cytotoxicity in Vero cells", "setting": "[8]; listed as lonchocarpin", "result": "no toxicity"}, {"measurement": "Bax protein expression", "setting": "[9]", "result": "up-regulation"}, {"measurement": "caspase-9", "setting": "[9]", "result": "activation"}, {"measurement": "cytochrome c protein expression", "setting": "[9]", "result": "up-regulation"}, {"measurement": "procaspase-3 protein expression", "setting": "[9]", "result": "reduction"}, {"measurement": "Bcl-2 protein expression", "setting": "[9]; 24 h and 48 h", "result": "obviously down-regulated"}, {"measurement": "cleaved caspase-3 protein expression", "setting": "[9]; 48 h", "result": "significantly increased"}, {"measurement": "Body weight/g After experiment", "setting": "[10]; 25 mg/kg oral daily", "result": "26.45 ± 0.68", "unit": "g"}, {"measurement": "Body weight/g Before experiment", "setting": "[10]; 25 mg/kg oral daily", "result": "39.19 ± 2.15", "unit": "g"}, {"measurement": "Inhibitory rate (%)", "setting": "[10]; 25 mg/kg oral daily", "result": 57.94, "unit": "%"}, {"measurement": "Spleen index", "setting": "[10]; 25 mg/kg oral daily", "result": 3.08, "unit": "mg/g"}, {"measurement": "Tumor weight/g", "setting": "[10]; 25 mg/kg oral daily", "result": "3.39 ± 0.69", "unit": "g"}, {"measurement": "Body weight/g After experiment", "setting": "[10]; 50 mg/kg oral daily", "result": "28.99 ± 0.47", "unit": "g"}, {"measurement": "Body weight/g Before experiment", "setting": "[10]; 50 mg/kg oral daily", "result": "36.48 ± 1.38", "unit": "g"}, {"measurement": "Inhibitory rate (%)", "setting": "[10]; 50 mg/kg oral daily", "result": 63.40, "unit": "%"}, {"measurement": "Spleen index", "setting": "[10]; 50 mg/kg oral daily", "result": 3.17, "unit": "mg/g"}, {"measurement": "Tumor weight/g", "setting": "[10]; 50 mg/kg oral daily", "result": "2.95 ± 0.66", "unit": "g"}, {"measurement": "Body weight/g After experiment", "setting": "[10]; 100 mg/kg oral daily", "result": "28.21 ± 1.98", "unit": "g"}, {"measurement": "Body weight/g Before experiment", "setting": "[10]; 100 mg/kg oral daily", "result": "38.71 ± 2.20", "unit": "g"}, {"measurement": "Inhibitory rate (%)", "setting": "[10]; 100 mg/kg oral daily", "result": 72.51, "unit": "%"}, {"measurement": "Spleen index", "setting": "[10]; 100 mg/kg oral daily", "result": 3.30, "unit": "mg/g"}, {"measurement": "Tumor weight/g", "setting": "[10]; 100 mg/kg oral daily", "result": "2.21 ± 0.72", "unit": "g"}, {"measurement": "inhibition at 100 µM", "setting": "[11]", "result": 62, "unit": "%"}, {"measurement": "inhibition at 100 µM", "setting": "[12]", "result": 46.7, "unit": "%"}, {"measurement": "inhibition at 100 µM", "setting": "[13]", "result": 42.3, "unit": "%"}, {"measurement": "inhibition at 100 µM", "setting": "[14]", "result": 69.2, "unit": "%"}, {"measurement": "inhibition at 100 µM", "setting": "[15]", "result": 63, "unit": "%"}]}]}
